Measured values reported in patent US20250327794A1, “FLUOROMETRIC METHODS FOR DETECTION OF ALLERGIC SENSITIVITY TO ENVIRONMENTAL, FOODSTUFF, AND MEDICAMENT STIMULANTS” (CELL SCIENCE SYSTEMS CORPORATION, priority 2022, published 2025).

Assays:
Format in all cases: cell-based, human
white blood cells = assay: Propidium iodide (PI) staining by flow cytometry, channel 3 FL3-A
Description: Cell viability determination using DNA staining was incorporated to improve flow cytometry analysis of granulocyte subpopulations. […] Throughout Example 2, additional exogenous stimulants were tested for their ability to instigate granulocyte release of ROS.
Flow cytometry analysis of human blood samples was performed following exposure to exogenous dust mite (“DM”) stimulant using time course measurements of RH 123 and PI fluorescence. Density plots and histograms were determined for samples containing: control cells only, DHR 123 only, DHR 123+PMA stimulant (positive control), DHR 123+DM stimulant, and DHR 123+3× DM stimulant, following incubation times of 0.5 hours (FIGS. 9A-9J), 1.5 hours (FIGS. 10A-10J), and 2.5 hours (FIGS. 11A-11J), respectively. Propidium iodide staining was used as a measure of cell viability.
Flow cytometry analysis of human blood samples was performed following exposure to exogenous DM, ragweed pollen (RWP), milk (MLK), cucumber (CUC), and basil (BAS) stimulants using RH 123 and PI fluorescence measurement. Density plots and histograms were determined for samples containing: control cells, DHR 123 only, DHR 123+PMA stimulant, DHR 123+DM stimulant, DHR 123+RWP stimulant (1×: 2.5 μL; 2×: 5.0 μL), DHR 123+MLK stimulant (5 μL), DHR 123+CUC stimulant (5 μL), and DHR 123+BAS stimulant (5 μL), following an incubation times of 0.5, 1.5, and 2.5 hours. See RH 123 (FL1-A) density plots at FIGS. 13A-13H; RH 123 (FL1-A) histograms at FIGS. 14A-14H; propidium iodide (PI) (FL3-A) density plots at FIGS. 15A-15H; PI (FL3-A) histograms at FIGS. 16A-16H).
DHR 123 and PI flow cytometry blood testing was repeated using increased amounts of stimulant (8 μL of DM stimulant or RWP stimulant per 100 μL blood) and incubated for 2.5 hours.

neutrophils = assay: Neutrophil activation: CD16 surface marker fluorescence (channel 2 FL2-A)
From the text: Dead cells were gated and removed using PI(+) viability marker. The cell surface marker CD33 was used to distinguish the lymphocyte population from the monocyte and granulocyte populations. The cell surface marker CD16 was used to distinguish neutrophil and eosinophil populations from the monocytes and lymphocyte populations. The cell surface marker CD123 was used to distinguish the basophil population. Activated granulocytes were observed using the granulocyte activation surface marker CD63(+). Activated basophil and eosinophil populations were observed using surface markers […], in-tandem with CD63(+). Activated basophils were observed using the surface marker profile of CD63(+)/CD203c(+). Activated eosinophils were observed using the surface marker profile of CD63(+)/CD193(+)/CD203c(+). Activated neutrophils were observed using the surface marker profile of CD63(+)/CD193(−)/CD203(−). Activation of subpopulations was quantified as fold-change compared to the mean of the negative control samples.
Activation of neutrophils from human blood samples following exposure to exogenous stimulants was investigated using flow cytometry analysis of R123 fluorescence, as well as cell surface markers CD16, CD193, and CD123, and side scattering profiles. Density plots for RH 123 (channel 1; FL1-A), CD16 (channel 2; FL2-A), CD193 (channel 3, FL3-A), and CD123 (channel 4, FL4-A) following exposure to dust mite stimulant for 1.5 hours are shown in FIGS. 19A-19L (DHR 123 only: FIGS. 19A-19D; DHR 123+PMA stimulant: FIGS. 19E-19H; and DHR 123+DM stimulant: FIGS. 19I-19L). […] Histograms of CD16 fluorescence at 1.5 hours after stimulant exposure are shown in FIGS. 20A-20C (DHR 123 control: FIG. 20A, MFI=27956; DHR 123+PMA stimulant: FIG. 20B, MFI=11120; and DHR 123+DM stimulant: FIG. 20C, MFI=16358). […]

eosinophils = assay: Eosinophil activation: RH 123 signal in CD193(+)/CD16(-) gated cells
From the text: Activation of eosinophils from human blood samples following exposure to exogenous stimulants was investigated using flow cytometry analysis of RH 123 fluorescence, as well as cell surface markers CD16 and CD193, and side scattering profiles. CD193 (CCR3; Chemokine C—C motif receptor 3) is a surface marker expressed in eosinophils and basophils. FIGS. 23A-23C show density plots of CD193 fluorescence signal on channel 3 (FL3-A) for DHR 123 only (FIG. 23A), DHR 123+PMA stimulant (FIG. 23B), and DHR 123+DM stimulant (FIG. 23C) following exposure to stimulant for 1.5 hours. FIGS. 23D-23F show corresponding gated RH 123 results (MFI=32944, MFI=70320, and MFI=28522, respectively). FIGS. 24A-24C show density plots of CD193 fluorescent signals at channel 3 (FL3-A) for DHR 123 only (FIG. 24A), DHR 123+DM stimulant (FIG. 24B), and DHR 123+RWP stimulant (FIG. 24C) following exposure to stimulant for 2.5 hours. FIGS. 24D-24F show corresponding gated RH 123 results (FIG. 24D, DHR 123 only: MFI=10156; FIG. 24E, DHR 123+DM stimulant: MFI=19911, and […], DHR 123+RWP stimulant: MFI=17210).
Eosinophil population was selected using CD193(+) and CD16(−) expression profiles (shown in FIGS. 23A-23C and […] as encircled). Eosinophil population was reduced in PMA stimulant, DM stimulant and RWP stimulant exposed groups. In addition, DHR 123 signals in gated eosinophils was higher than DHR 123 only control group after 2.5-hour incubation. Thus, it was concluded that eosinophils are activated by dust mite and ragweed pollen stimulants according to this method.

[1] = 1-3 hr incubation, DHR 123 and PMA

In the case of `CCCCCCCCCCCCCC(=O)O[C@@H]1[C@@H](C)[C@@]2(O)[C@@H](C=C(CO)C[C@]3(O)C(=O)C(C)=C[C@@H]23)[C@@H]2C(C)(C)[C@]12OC(C)=O` [PMA, Phorbol-12-Myristate-13-Acetate], the “MFI (2.5 h) FL3-A” value (white blood cells; PMA or DM 2 μL/100 μL blood (Table 4)) is reported as 17,902.33, the “Mean FL3-A (2.5 h)” value (white blood cells; PMA, RWP1 2.5 μL, MLK, CUC, BAS 5 μL per 100 μL blood (Table 6)) is reported as 34,645.62 and the “MFI (2.5 h) FL3-A” value (white blood cells; increased stimulant, 8 μL DM or RWP per 100 μL blood (Table 7)) is reported as 11,914.00. For the same molecule, the “CD16 fluorescence signal intensity over time” value (neutrophils; [1]) was “decreased signal intensity over time”, the “expression of CD16 surface marker (in words)” value (neutrophils; 1.5 hours after stimulant exposure) was “greatly reduced” and the “mean fluorescent intensity (MFI) of CD16 surface marker (channel 2; FL2-A)” value (neutrophils; 1.5 hours exposure, DHR 123 only control MFI=27956) was 11120. For the same molecule, the “CD193 signal over incubation time” value (eosinophils; [1]) was “decreased”, the “gated RH 123 signal MFI, CD193 gated” value (eosinophils; 1.5 hours exposure, DHR 123 only control MFI=32944) was 70320 and the “eosinophil population (in words)” value (eosinophils; CD193(+) and CD16(−) population in stimulant exposed groups) was “reduced”.
